Laboratory results as given in article PMC10501649, “A detoxification pathway initiated by a nuclear receptor TcHR96h in Tetranychus cinnabarinus (Boisduval)” (PLOS Genetics, 2023).
Where two headings read alike, the source gives them in different places.

Tests used:
[1] = target: TcHR96h (nuclear hormone receptor HR96h); assay: microscale thermophoresis (MST), supported by DARTs; R448A mutation reduces affinity […]; type: binding, Tetranychus cinnabarinus
[2] = target: TcHR96h (nuclear hormone receptor HR96h); assay: as above; type: binding, Tetranychus cinnabarinus; remark: listed apart in the source

SMILES	Kd [1]	Kd [2]
COCCOC(=O)C(C#N)(C(=O)c1ccccc1C(F)(F)F)c1ccc(C(C)(C)C)cc1 (centres unmarked) [cyflumetofen]	189 µM	
CC(C)(C)c1ccc(C(C#N)C(=O)c2ccccc2C(F)(F)F)cc1 (centres unmarked) [AB-1]		138 µM
